Results from ChEMBL document CHEMBL1909046, “DrugMatrix in vitro pharmacology data”.

Experiments:
Glycine receptor = Glycine receptor (Rattus norvegicus, UniProt P22771+P24524+P07727+P20781); format: cell membranes, Wistar, Spinal cord, Membrane; also: in other assays of this panel Not Active means under 50% inhibition at 10 µM
Insulin receptor = Insulin receptor (Rattus norvegicus, UniProt P15127); format: cell membranes, Wistar, Liver, Membrane; also: in other assays of this panel Not Active means under 50% inhibition at 10 µM
Insulin receptor, sequence (P15127 27-759 limits assumed): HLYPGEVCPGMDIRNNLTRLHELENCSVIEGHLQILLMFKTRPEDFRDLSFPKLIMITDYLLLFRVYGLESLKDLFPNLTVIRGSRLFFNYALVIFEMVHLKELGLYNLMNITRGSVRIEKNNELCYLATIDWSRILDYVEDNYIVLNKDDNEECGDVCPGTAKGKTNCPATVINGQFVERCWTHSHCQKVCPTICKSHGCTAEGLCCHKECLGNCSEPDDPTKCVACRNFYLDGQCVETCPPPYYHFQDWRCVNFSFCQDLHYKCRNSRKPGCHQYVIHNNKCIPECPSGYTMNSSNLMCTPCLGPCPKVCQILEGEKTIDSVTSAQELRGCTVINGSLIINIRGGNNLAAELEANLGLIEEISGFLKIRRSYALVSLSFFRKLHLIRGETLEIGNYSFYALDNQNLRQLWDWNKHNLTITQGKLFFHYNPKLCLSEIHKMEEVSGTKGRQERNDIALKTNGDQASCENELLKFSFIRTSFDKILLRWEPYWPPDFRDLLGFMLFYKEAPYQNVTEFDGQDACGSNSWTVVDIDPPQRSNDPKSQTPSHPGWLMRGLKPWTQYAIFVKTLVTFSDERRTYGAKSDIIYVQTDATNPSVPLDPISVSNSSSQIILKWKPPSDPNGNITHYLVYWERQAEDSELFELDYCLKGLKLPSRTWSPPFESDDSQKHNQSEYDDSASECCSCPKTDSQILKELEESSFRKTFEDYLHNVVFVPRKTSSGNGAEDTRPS
Insulin receptor, sequence (P15127 764-1383 limits assumed): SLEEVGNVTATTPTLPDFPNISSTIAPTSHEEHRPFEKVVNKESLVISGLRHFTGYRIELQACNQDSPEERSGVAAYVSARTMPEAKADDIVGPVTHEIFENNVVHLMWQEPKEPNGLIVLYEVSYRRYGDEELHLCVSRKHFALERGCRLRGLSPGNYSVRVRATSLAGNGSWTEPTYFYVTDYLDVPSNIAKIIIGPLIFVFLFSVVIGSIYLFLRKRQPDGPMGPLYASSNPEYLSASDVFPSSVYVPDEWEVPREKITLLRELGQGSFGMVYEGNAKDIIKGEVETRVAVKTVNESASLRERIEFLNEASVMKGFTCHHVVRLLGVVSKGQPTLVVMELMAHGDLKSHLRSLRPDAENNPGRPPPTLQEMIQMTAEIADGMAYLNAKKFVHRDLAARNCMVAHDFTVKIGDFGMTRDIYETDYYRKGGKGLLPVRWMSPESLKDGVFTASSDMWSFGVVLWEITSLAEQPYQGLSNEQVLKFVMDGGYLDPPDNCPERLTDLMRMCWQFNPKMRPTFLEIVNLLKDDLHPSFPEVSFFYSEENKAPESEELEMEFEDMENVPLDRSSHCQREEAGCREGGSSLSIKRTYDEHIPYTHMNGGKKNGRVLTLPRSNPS

Vasopressin V1a receptor = Vasopressin V1a receptor (Homo sapiens, UniProt P37288); format: cell membranes, Membrane; details: hek293; also: in other assays of this panel Not Active means under 50% inhibition at 10 µM
Vasopressin V1a receptor, sequence (P37288 whole entry): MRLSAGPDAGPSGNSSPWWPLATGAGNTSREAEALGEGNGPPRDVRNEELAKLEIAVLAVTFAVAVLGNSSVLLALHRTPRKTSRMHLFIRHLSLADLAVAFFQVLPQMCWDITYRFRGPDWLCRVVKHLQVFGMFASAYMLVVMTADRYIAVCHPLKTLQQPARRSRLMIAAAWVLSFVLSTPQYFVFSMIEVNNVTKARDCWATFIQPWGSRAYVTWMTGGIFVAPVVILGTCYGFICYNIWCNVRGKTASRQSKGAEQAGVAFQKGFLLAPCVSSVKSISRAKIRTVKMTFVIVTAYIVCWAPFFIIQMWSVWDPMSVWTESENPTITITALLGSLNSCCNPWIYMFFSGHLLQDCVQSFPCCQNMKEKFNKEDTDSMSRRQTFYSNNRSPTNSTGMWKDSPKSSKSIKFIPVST

[1] = biological target: Beta-2 adrenergic receptor (Homo sapiens, UniProt P07550); experiment: DRUGMATRIX: Adrenergic beta2 radioligand binding (ligand: [3H] CGP-12177); format: cell membranes, CHO, Membrane; details: cho; Not Active = under 50% inhibition at 10 µM
Beta-2 adrenergic receptor, sequence (P07550 whole entry): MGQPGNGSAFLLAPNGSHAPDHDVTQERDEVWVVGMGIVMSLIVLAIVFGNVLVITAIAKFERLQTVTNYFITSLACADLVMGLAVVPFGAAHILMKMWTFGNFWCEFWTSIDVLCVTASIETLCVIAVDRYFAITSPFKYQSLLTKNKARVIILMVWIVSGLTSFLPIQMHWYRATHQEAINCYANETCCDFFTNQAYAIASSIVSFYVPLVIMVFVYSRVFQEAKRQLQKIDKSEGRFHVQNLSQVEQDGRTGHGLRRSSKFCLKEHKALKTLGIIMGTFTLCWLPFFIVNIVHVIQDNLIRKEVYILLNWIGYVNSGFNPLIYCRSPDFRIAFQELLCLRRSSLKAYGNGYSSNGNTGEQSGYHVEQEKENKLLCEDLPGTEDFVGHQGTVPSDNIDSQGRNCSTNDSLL

[2] = biological target: Voltage-gated inwardly rectifying potassium channel KCNH2 (Homo sapiens, UniProt Q12809); details: hek293; also: in other assays of this panel Not Active means under 50% inhibition at 10 µM
Voltage-gated inwardly rectifying potassium channel KCNH2, sequence (Q12809 whole entry): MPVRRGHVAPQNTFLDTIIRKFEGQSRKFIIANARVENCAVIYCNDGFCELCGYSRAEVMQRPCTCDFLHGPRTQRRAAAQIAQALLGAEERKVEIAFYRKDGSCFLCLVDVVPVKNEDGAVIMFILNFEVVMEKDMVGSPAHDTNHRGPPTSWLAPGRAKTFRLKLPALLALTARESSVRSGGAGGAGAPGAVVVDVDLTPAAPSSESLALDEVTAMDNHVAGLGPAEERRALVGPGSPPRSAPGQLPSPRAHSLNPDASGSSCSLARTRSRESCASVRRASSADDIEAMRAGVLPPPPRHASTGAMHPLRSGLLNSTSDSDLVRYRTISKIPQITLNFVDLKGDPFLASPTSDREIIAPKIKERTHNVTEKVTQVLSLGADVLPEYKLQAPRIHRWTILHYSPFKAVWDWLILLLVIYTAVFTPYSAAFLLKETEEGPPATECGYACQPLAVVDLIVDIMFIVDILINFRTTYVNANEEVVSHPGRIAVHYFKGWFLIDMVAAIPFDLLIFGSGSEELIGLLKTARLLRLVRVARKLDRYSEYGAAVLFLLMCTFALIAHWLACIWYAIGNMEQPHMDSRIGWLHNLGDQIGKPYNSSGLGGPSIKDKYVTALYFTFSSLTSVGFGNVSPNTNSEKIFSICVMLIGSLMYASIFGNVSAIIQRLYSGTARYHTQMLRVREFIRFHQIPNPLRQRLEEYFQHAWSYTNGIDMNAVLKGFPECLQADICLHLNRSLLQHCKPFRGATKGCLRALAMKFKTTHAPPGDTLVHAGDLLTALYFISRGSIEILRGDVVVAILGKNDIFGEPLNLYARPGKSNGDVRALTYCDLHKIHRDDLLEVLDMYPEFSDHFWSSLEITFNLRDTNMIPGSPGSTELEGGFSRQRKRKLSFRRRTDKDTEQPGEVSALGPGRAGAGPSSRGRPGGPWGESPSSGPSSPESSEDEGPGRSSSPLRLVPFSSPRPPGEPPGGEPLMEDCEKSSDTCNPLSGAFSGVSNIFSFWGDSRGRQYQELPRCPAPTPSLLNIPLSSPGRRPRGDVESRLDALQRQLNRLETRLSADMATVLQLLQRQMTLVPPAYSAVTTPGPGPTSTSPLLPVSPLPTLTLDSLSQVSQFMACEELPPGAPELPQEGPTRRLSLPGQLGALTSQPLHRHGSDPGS

[3] = biological target: T1, 3-hydroxy-3-methylglutaryl-coenzyme A reductase (Homo sapiens, UniProt P04035); parameters: species or system Escherichia coli
T1 sequence (P04035 whole entry): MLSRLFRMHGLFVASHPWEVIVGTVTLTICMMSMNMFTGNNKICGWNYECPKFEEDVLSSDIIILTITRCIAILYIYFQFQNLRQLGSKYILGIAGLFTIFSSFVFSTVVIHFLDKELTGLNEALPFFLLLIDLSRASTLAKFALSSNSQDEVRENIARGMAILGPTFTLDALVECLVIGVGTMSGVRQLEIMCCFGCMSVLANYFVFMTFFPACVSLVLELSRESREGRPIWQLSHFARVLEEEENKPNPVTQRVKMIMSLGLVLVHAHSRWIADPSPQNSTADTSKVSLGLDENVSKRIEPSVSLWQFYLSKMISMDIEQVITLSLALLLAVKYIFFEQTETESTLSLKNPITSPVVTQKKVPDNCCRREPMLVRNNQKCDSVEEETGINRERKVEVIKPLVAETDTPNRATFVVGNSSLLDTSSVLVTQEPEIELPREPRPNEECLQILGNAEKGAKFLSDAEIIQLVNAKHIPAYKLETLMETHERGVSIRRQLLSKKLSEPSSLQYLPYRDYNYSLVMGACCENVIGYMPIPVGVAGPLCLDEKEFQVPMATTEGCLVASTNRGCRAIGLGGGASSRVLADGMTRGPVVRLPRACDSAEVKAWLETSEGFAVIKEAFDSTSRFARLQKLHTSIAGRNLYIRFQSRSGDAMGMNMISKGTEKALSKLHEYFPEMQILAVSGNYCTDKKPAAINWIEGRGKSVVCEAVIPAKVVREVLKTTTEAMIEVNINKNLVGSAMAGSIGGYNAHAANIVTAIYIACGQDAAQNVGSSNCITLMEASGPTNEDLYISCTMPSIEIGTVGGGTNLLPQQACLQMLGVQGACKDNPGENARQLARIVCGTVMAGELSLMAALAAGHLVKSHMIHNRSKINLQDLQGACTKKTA

Carbonic anhydrase 2 = Carbonic anhydrase 2 (Homo sapiens, UniProt P00918); experiment: DRUGMATRIX: Carbonic Anhydrase II enzyme inhibition (substrate: 4-Nitrophenyl acetate (4-NPA)); format: tissue-based, Erythrocyte; details: erythrocyte; Not Active = under 50% inhibition at 10 µM

Nn1nnc2ccccc21
Not Active: IC50 (Glycine receptor) | IC50 (Insulin receptor) | IC50 (Vasopressin V1a receptor) | IC50 [1] | IC50 [2] | Ki [2] | IC50 [3] | IC50 (Carbonic anhydrase 2)

CC[C@]1(O)CC[C@H]2[C@@H]3CCC4=CCCC[C@@H]4[C@H]3CC[C@@]21C
Not Active: IC50 (Glycine receptor) | IC50 (Insulin receptor) | IC50 (Vasopressin V1a receptor) | IC50 [1] | IC50 [2] | Ki [2] | IC50 [3] | IC50 (Carbonic anhydrase 2)

N[C@@H](Cc1ccc(F)cc1)C(=O)O
Not Active: IC50 (Glycine receptor) | IC50 (Insulin receptor) | IC50 (Vasopressin V1a receptor) | IC50 [1] | IC50 [2] | Ki [2] | IC50 [3] | IC50 (Carbonic anhydrase 2)

CCOC(=O)[C@H](CCc1ccccc1)N[C@@H](C)C(=O)N1Cc2ccccc2C[C@H]1C(=O)O
Not Active: IC50 (Glycine receptor) | IC50 (Insulin receptor) | IC50 (Vasopressin V1a receptor) | IC50 [1] | IC50 [2] | Ki [2] | IC50 [3] | IC50 (Carbonic anhydrase 2)

O=C(c1ccccc1Cl)N1CCC(Cc2ccccc2)CC1
Not Active: IC50 (Glycine receptor) | IC50 (Insulin receptor) | IC50 (Vasopressin V1a receptor) | IC50 [1] | IC50 [2] | Ki [2] | IC50 [3] | IC50 (Carbonic anhydrase 2)

CCOC(=O)[C@H](CCc1ccccc1)N[C@@H](C)C(=O)N1CCC[C@H]1C(=O)O
Not Active: IC50 (Glycine receptor) | IC50 (Insulin receptor) | IC50 (Vasopressin V1a receptor) | IC50 [1] | IC50 [2] | Ki [2] | IC50 [3] | IC50 (Carbonic anhydrase 2)

Clc1cc2c(cc1Cl)Oc1cc(Cl)c(Cl)cc1O2 [2,3,7,8-TETRACHLORODIBENZO-P-DIOXIN]
Not Active: IC50 (Glycine receptor) | IC50 (Insulin receptor) | IC50 (Vasopressin V1a receptor) | IC50 [1] | IC50 [2] | Ki [2] | IC50 [3] | IC50 (Carbonic anhydrase 2)

C=C1/C(=C\C=C2/CCC[C@]3(C)[C@@H]([C@H](C)CCCC(C)C)CC[C@@H]23)C[C@@H](O)C[C@@H]1O [ALFACALCIDOL]
Not Active: IC50 (Glycine receptor) | IC50 (Insulin receptor) | IC50 (Vasopressin V1a receptor) | IC50 [1] | IC50 [2] | Ki [2] | IC50 [3] | IC50 (Carbonic anhydrase 2)

CCCCCC[C@H]1C(=O)O[C@H](C)[C@H](NC(=O)c2cccc(NC=O)c2O)C(=O)O[C@@H](C)[C@@H]1OC(=O)CC(C)C [ANTIMYCIN A]
Not Active: IC50 (Glycine receptor) | IC50 (Insulin receptor) | IC50 (Vasopressin V1a receptor) | IC50 [1] | IC50 [2] | Ki [2] | IC50 [3] | IC50 (Carbonic anhydrase 2)

C[C@@H]1CC[C@H]2[C@@H](C)C(=O)O[C@@H]3O[C@@]4(C)CC[C@@H]1[C@]32OO4 [ARTEMISININ]
Not Active: IC50 (Glycine receptor) | IC50 (Insulin receptor) | IC50 (Vasopressin V1a receptor) | IC50 [1] | IC50 [2] | Ki [2] | IC50 [3] | IC50 (Carbonic anhydrase 2)

CO[C@H]1[C@@H](O)[C@H](N)[C@@H](O[C@H]2O[C@H]([C@H](C)N)CC[C@H]2N)[C@H](O)[C@@H]1N(C)C(=O)CN [ASTROMICIN]
Not Active: IC50 (Glycine receptor) | IC50 (Insulin receptor) | IC50 (Vasopressin V1a receptor) | IC50 [1] | IC50 [2] | Ki [2] | IC50 [3] | IC50 (Carbonic anhydrase 2)

[N-]=[N+]=CC(=O)OC[C@H](N)C(=O)O [AZASERINE]
Not Active: IC50 (Glycine receptor) | IC50 (Insulin receptor) | IC50 (Vasopressin V1a receptor) | IC50 [1] | IC50 [2] | Ki [2] | IC50 [3] | IC50 (Carbonic anhydrase 2)

CCC[C@@H]1C[C@@H](C(=O)N[C@@H]([C@H]2O[C@H](SC)[C@H](O)[C@@H](O)[C@H]2O)[C@H](C)Cl)N(C)C1 [CLINDAMYCIN]
Not Active: IC50 (Glycine receptor) | IC50 (Insulin receptor) | IC50 (Vasopressin V1a receptor) | IC50 [1] | IC50 [3] | IC50 (Carbonic anhydrase 2)

CN1C(=O)CN=C(c2ccccc2)c2cc(Cl)ccc21 [DIAZEPAM]
Not Active: IC50 (Glycine receptor) | IC50 (Insulin receptor) | IC50 (Vasopressin V1a receptor) | IC50 [1] | IC50 [3] | IC50 (Carbonic anhydrase 2)

Cc1cnc(C(=O)NCCc2ccc(S(=O)(=O)NC(=O)NC3CCCCC3)cc2)cn1 [GLIPIZIDE]
Not Active: IC50 (Glycine receptor) | IC50 (Insulin receptor) | IC50 (Vasopressin V1a receptor) | IC50 [1] | IC50 (Carbonic anhydrase 2)

C/C=C\c1ccc(O)c(OC)c1 [ISOEUGENOL]
Not Active: IC50 (Glycine receptor) | IC50 (Insulin receptor) | IC50 (Vasopressin V1a receptor) | IC50 [1] | IC50 [3] | IC50 (Carbonic anhydrase 2)

CC[C@H](C)C(=O)O[C@H]1C[C@@H](C)C=C2C=C[C@H](C)[C@H](CC[C@@H]3C[C@@H](O)CC(=O)O3)[C@H]21 [LOVASTATIN]
Not Active: IC50 (Glycine receptor) | IC50 (Insulin receptor) | IC50 (Vasopressin V1a receptor) | IC50 [1] | IC50 (Carbonic anhydrase 2)

OCCN1CCN(CCCN2c3ccccc3Sc3ccc(Cl)cc32)CC1 [PERPHENAZINE]
Not Active: IC50 (Glycine receptor) | IC50 (Insulin receptor) | IC50 (Vasopressin V1a receptor) | IC50 [1] | IC50 [3] | IC50 (Carbonic anhydrase 2)

CC[C@H](C)C(=O)O[C@H]1C[C@H](O)C=C2C=C[C@H](C)[C@H](CC[C@@H](O)C[C@@H](O)CC(=O)O)[C@H]21 [PRAVASTATIN]
Not Active: IC50 (Glycine receptor) | IC50 (Insulin receptor) | IC50 (Vasopressin V1a receptor) | IC50 [1] | IC50 [2] | Ki [2] | IC50 (Carbonic anhydrase 2)
